Molecules are shown by their SMILES. ≈ marks a conversion by molar mass, not a printed value. A value given as a limit tells only on which side of the number the result lay.

What all share (assay): ≥ marks a high value that may be exact or a test limit, other limits are often not marked, values filed in µg/mL are converted to µM
Experiment [1] has as its system Staphylococcus aureus ATCC 29213.
Experiment [2] relates to Escherichia coli ATCC 25922.
Experiment [3] concerns Pseudomonas aeruginosa ATCC 27853.
The subject of experiment [4] is Escherichia coli.
Experiment [5] relates to Staphylococcus aureus.
Experiment [6] has as its system Staphylococcus epidermidis ATCC 12228.

Take `CC[C@H](C)[C@H](NC(=O)[C@@H](NC(=O)[C@H](CCCCN)NC(=O)[C@@H](NC(=O)[C@H](C)NC(=O)[C@@H](NC(=O)[C@H](Cc1cnc[nH]1)NC(=O)CNC(=O)[C@H](C)NC(=O)[C@H](CC(C)C)NC(=O)[C@H](CC(=O)O)NC(=O)[C@H](CCCCN)NC(=O)[C@H](C)NC(=O)[C@H](C)NC(=O)CNC(=O)[C@H](CCCCN)NC(=O)[C@H](CC(C)C)NC(=O)[C@@H](NC(=O)[C@H](CC(=O)O)NC(=O)[C@H](CC(C)C)NC(=O)[C@@H](NC(=O)CN)C(C)C)[C@@H](C)CC)C(C)C)[C@@H](C)O)C(C)C)C(=O)O` [GVLDILKGAAKDLAGHVATKVI]: the figures for the MIC in experiment [1] and in experiment [2] were 14.6 µM (≈ 32 µg/mL) and 3.6 µM (≈ 7.88 µg/mL), respectively.

Consider `CC(C)C[C@H](NC(=O)[C@H](CCCCN)NC(=O)[C@H](CC(C)C)NC(=O)[C@H](CC(C)C)NC(=O)[C@H](CCCCN)NC(=O)[C@H](CCCCN)NC(=O)[C@H](CC(N)=O)NC(=O)[C@H](CC(C)C)NC(=O)[C@H](CCCCN)NC(=O)[C@H](CC(C)C)NC(=O)[C@H](CC(C)C)NC(=O)[C@H](CCCCN)NC(=O)[C@H](CCCCN)NC(=O)[C@@H](N)CC(C)C)C(=O)N[C@@H](C)C(=O)NCC(=O)O` [LKKLLKLNKKLLKLAG], for which the MIC (commonly the lowest concentration found to suppress growth) in experiment [1] was more than 40 µM; in experiment [2], 2.5 µM (≈ 4.55 µg/mL).

Consider `NCC(=O)N[C@@H](CCCN=C(N)N)C(=O)N[C@@H](CCCN=C(N)N)C(=O)N1CCC[C@H]1C(=O)N[C@@H](CCCN=C(N)N)C(=O)N1CCC[C@H]1C(=O)N[C@@H](CCCN=C(N)N)C(=O)N1CCC[C@H]1C(=O)N[C@@H](CCCN=C(N)N)C(=O)N1CCC[C@H]1C(=O)N[C@@H](Cc1ccccc1)C(=O)N[C@@H](Cc1ccccc1)C(=O)N[C@@H](Cc1ccccc1)C(=O)N[C@@H](Cc1ccccc1)C(=O)N[C@@H](Cc1ccccc1)C(=O)O` [GRRPRPRPRPFFFFF], for which the results for the MIC in experiment [3], in experiment [1] and in experiment [2] were 20 µM (≈ 39.6 µg/mL), 2.5 µM (≈ 4.95 µg/mL) and 20 µM (≈ 39.6 µg/mL), respectively.

With `CC[C@H](C)[C@H](NC(=O)[C@H](Cc1c[nH]c2ccccc12)NC(=O)[C@H](CCCCN)NC(=O)[C@@H](NC(=O)[C@H](CC(C)C)NC(=O)[C@H](CCCCN)NC(=O)CNC(=O)[C@@H](NC(=O)[C@@H](NC(=O)[C@H](CO)NC(=O)[C@@H](NC(=O)[C@@H](NC(=O)[C@H](CCCCN)NC(=O)[C@H](CCC(N)=O)NC(=O)[C@H](C)N)[C@@H](C)CC)[C@@H](C)CC)[C@@H](C)O)[C@@H](C)CC)C(C)C)C(=O)N[C@H](C(=O)N[C@@H](CCCCN)C(=O)N[C@H](C(=O)N[C@H](C(=O)N[C@@H](CC(N)=O)C(=O)N[C@@H](CCCCN)C(=O)N[C@@H](Cc1ccccc1)C(=O)N[C@H](C(=O)N[C@@H](CCCCN)C(=O)N[C@@H](CCCCN)C(=O)O)[C@@H](C)O)C(C)C)[C@@H](C)O)[C@@H](C)CC` [AQKIISTIGKLVKWIIKTVNKFTKK], the MIC in experiment [4] came out at 2.5 µM (≈ 7.22 µg/mL); in experiment [5], 10.3 µM (≈ 29.7 µg/mL).

For the compound `CC(C)C[C@H](NC(=O)[C@H](CC(N)=O)NC(=O)[C@H](Cc1c[nH]c2ccccc12)NC(=O)[C@H](CCCN=C(N)N)NC(=O)[C@H](C)NC(=O)[C@H](CCCCN)NC(=O)[C@H](CCCCN)NC(=O)CNC(=O)[C@H](CC(C)C)NC(=O)[C@H](Cc1ccc(O)cc1)NC(=O)[C@H](Cc1ccc(O)cc1)NC(=O)CNC(=O)[C@H](Cc1c[nH]c2ccccc12)NC(=O)[C@@H](N)CO)C(=O)O` [SWGYYLGKKARWNL], the MIC in experiment [6] was more than 50 µM.

Consider `CC(C)C[C@H](NC(=O)[C@H](CCCCN)NC(=O)[C@H](CC(C)C)NC(=O)[C@H](CC(C)C)NC(=O)[C@H](CCCCN)NC(=O)[C@H](CCCCN)NC(=O)[C@H](CCCCN)NC(=O)[C@H](CC(C)C)NC(=O)[C@H](CCCCN)NC(=O)[C@H](CC(C)C)NC(=O)[C@H](CC(C)C)NC(=O)[C@H](CCCCN)NC(=O)[C@H](CCCCN)NC(=O)[C@@H](N)CC(C)C)C(=O)N[C@@H](C)C(=O)NCC(=O)O` [LKKLLKLKKKLLKLAG], for which the values for the minimum inhibitory concentration (MIC) in experiment [1] and in experiment [2] were more than 40 µM and 5 µM (≈ 9.18 µg/mL), respectively.

Regarding `CC(C)C[C@H](NC(=O)[C@H](Cc1ccccc1)NC(=O)[C@@H]1CCCN1C(=O)[C@H](Cc1ccccc1)NC(=O)[C@H](Cc1ccccc1)NC(=O)[C@H](Cc1ccccc1)NC(=O)[C@@H]1CCCN1C(=O)[C@H](Cc1ccccc1)NC(=O)[C@H](CCCN=C(N)N)NC(=O)[C@H](CCCN=C(N)N)NC(=O)[C@@H](N)C(C)C)C(=O)N[C@@H](CCCN=C(N)N)C(=O)N[C@@H](CCCN=C(N)N)C(N)=O` [VRRFPFFFPFLRR], the MIC in experiment [4] and in experiment [5] was 3.36 µM (≈ 6 µg/mL) in each case.

As to `CC[C@H](C)[C@H](NC(=O)[C@H](Cc1c[nH]c2ccccc12)NC(=O)[C@H](CCCCN)NC(=O)[C@@H](NC(=O)[C@H](CC(C)C)NC(=O)[C@@H](N)CCCCN)C(C)C)C(=O)N[C@H](C(=O)N[C@@H](CCCCN)C(=O)N[C@H](C(=O)N[C@H](C(=O)N[C@@H](CC(N)=O)C(=O)N[C@@H](CCCCN)C(=O)N[C@@H](Cc1ccccc1)C(=O)N[C@H](C(=O)N[C@@H](CCCCN)C(=O)N[C@@H](CCCCN)C(=O)O)[C@@H](C)O)C(C)C)[C@@H](C)O)[C@@H](C)CC` [KLVKWIIKTVNKFTKK], the MIC in experiment [4] amounted to 3.5 µM (≈ 6.91 µg/mL); in experiment [5], 22 µM (≈ 43.4 µg/mL).

Regarding `CC[C@H](C)[C@H](NC(=O)[C@H](CCCN=C(N)N)NC(=O)[C@H](CCC(N)=O)NC(=O)[C@@H](NC(=O)[C@H](CCC(N)=O)NC(=O)[C@H](CCCN=C(N)N)NC(=O)[C@H](CCCCN)NC(=O)[C@@H](N)Cc1ccccc1)C(C)C)C(=O)N[C@@H](CCCCN)C(=O)N[C@@H](CC(=O)O)C(=O)N[C@@H](Cc1ccccc1)C(=O)N[C@@H](CC(C)C)C(=O)N[C@@H](CCCN=C(N)N)C(=O)O` [FKRQVQRIKDFLR], the MIC was more than 40 µM in experiment [1] and 10 µM (≈ 17.3 µg/mL) in experiment [2].

Take `NC(=O)[C@H](Cc1c[nH]c2ccccc12)NC(=O)[C@H](Cc1c[nH]c2ccccc12)NC(=O)[C@H](Cc1c[nH]c2ccccc12)NC(=O)[C@@H]1CCCN1C(=O)[C@H](CCCN=C(N)N)NC(=O)[C@@H]1CCCN1C(=O)[C@H](CCCN=C(N)N)NC(=O)[C@@H]1CCCN1C(=O)[C@H](CCCN=C(N)N)NC(=O)[C@@H]1CCCN1C(=O)[C@H](CCCN=C(N)N)NC(=O)[C@@H](N)CCCN=C(N)N` [RRPRPRPRPWWW]: the MIC came out at 20 µM (≈ 34.9 µg/mL) in experiment [3], 40 µM (≈ 69.8 µg/mL) in experiment [1] and 40 µM (≈ 69.8 µg/mL) in experiment [2].

Take `CC(C)C[C@H](NC(=O)[C@H](Cc1c[nH]c2ccccc12)NC(=O)[C@H](CCCCN)NC(=O)[C@H](CCCCN)NC(=O)[C@H](C)NC(=O)[C@H](CO)NC(=O)[C@H](Cc1cnc[nH]1)NC(=O)[C@H](CC(C)C)NC(=O)[C@H](Cc1ccccc1)NC(=O)[C@H](CCCCN)NC(=O)[C@@H](N)CCCCN)C(=O)N[C@@H](CCCCN)C(=O)N[C@@H](C)C(=O)N[C@@H](Cc1ccccc1)C(=O)N[C@H](C(=O)N[C@@H](CCCCN)C(=O)N[C@@H](CC(C)C)C(=O)N[C@@H](Cc1ccccc1)C(=O)N[C@@H](CCCCN)C(=O)N[C@@H](CC(N)=O)C(=O)N[C@@H](Cc1c[nH]c2ccccc12)C(=O)O)C(C)C` [KKFLHSAKKWLKAFVKLFKNW]: in experiment [1], the MIC came to 9.44 µM (≈ 25 µg/mL).

Turning to `CC(=O)N[C@@H](CCCCN)C(=O)N[C@@H](CC(C)C)C(=O)N[C@@H](CC(C)C)C(=O)N[C@@H](CCCCN)C(=O)N[C@@H](CC(C)C)C(=O)N[C@@H](CC(C)C)C(=O)N[C@@H](CCCCN)C(=O)N[C@@H](CCCCN)C(=O)N[C@@H](CC(C)C)C(=O)N[C@@H](CC(C)C)C(=O)N[C@@H](CCCCN)C(=O)N[C@@H](CC(C)C)C(=O)N[C@@H](CC(C)C)C(=O)N[C@@H](CCCCN)C(N)=O` [KLLKLLKKLLKLLK], the minimal inhibitory concentration (MIC) came to 14.1 µM (≈ 24.5 µg/mL) in experiment [1] and 20 µM (≈ 34.7 µg/mL) in experiment [2].

Regarding `CC[C@H](C)[C@H](NC(=O)[C@@H](N)Cc1ccccc1)C(=O)N[C@@H](CC(C)C)C(=O)N[C@@H](CCCCN)C(=O)N[C@@H](CCCN=C(N)N)C(=O)N[C@@H](CO)C(=O)N[C@@H](Cc1ccc(O)cc1)C(=O)N1CCC[C@H]1C(=O)N[C@@H](CCC(N)=O)C(=O)N[C@@H](Cc1ccc(O)cc1)C(=O)N[C@@H](Cc1ccc(O)cc1)C(N)=O` [FILKRSYPQYY], the MIC in experiment [1] was more than 474 µM; in experiment [2], 406 µM (≈ 600 µg/mL).

Turning to `NC(=O)[C@H](Cc1ccccc1)NC(=O)[C@H](Cc1ccccc1)NC(=O)[C@H](Cc1ccccc1)NC(=O)[C@H](Cc1ccccc1)NC(=O)[C@H](Cc1ccccc1)NC(=O)[C@@H]1CCCN1C(=O)[C@H](CCCN=C(N)N)NC(=O)[C@@H]1CCCN1C(=O)[C@H](CCCN=C(N)N)NC(=O)[C@@H]1CCCN1C(=O)[C@H](CCCN=C(N)N)NC(=O)[C@@H]1CCCN1C(=O)[C@H](CCCN=C(N)N)NC(=O)[C@@H](N)CCCN=C(N)N` [RRPRPRPRPFFFFF], the values for the MIC in experiment [3], in experiment [1] and in experiment [2] were 20 µM (≈ 38.4 µg/mL), 10 µM (≈ 19.2 µg/mL) and 10 µM (≈ 19.2 µg/mL), respectively.

With `CC(C)[C@H](NC(=O)[C@H](Cc1c[nH]c2ccccc12)NC(=O)[C@H](CCCCN)NC(=O)[C@@H](N)CCCN=C(N)N)C(=O)N[C@@H](C)C(=O)N[C@@H](Cc1c[nH]c2ccccc12)C(=O)N[C@@H](CCCN=C(N)N)C(=O)N[C@@H](CC(N)=O)C(=O)N[C@@H](CCCN=C(N)N)C(=O)O` [RKWVAWRNR], the minimum inhibitory concentration (MIC) in experiment [1] worked out at 49.2 µM (≈ 62.5 µg/mL); in experiment [2], 98.3 µM (≈ 125 µg/mL).

Consider `CC[C@H](C)[C@H](NC(=O)[C@H](CCCN=C(N)N)NC(=O)[C@H](CCC(N)=O)NC(=O)[C@H](Cc1cnc[nH]1)NC(=O)[C@@H](NC(=O)[C@H](CCCN=C(N)N)NC(=O)[C@H](CCCCN)NC(=O)[C@@H](N)Cc1ccccc1)[C@@H](C)CC)C(=O)N[C@@H](CCCCN)C(=O)N[C@@H](CC(=O)O)C(=O)N[C@@H](Cc1ccccc1)C(=O)N[C@@H](CC(C)C)C(=O)N[C@@H](CCCN=C(N)N)C(=O)O` [FKRIHQRIKDFLR], for which the values for the MIC in experiment [1] and in experiment [2] were more than 40 µM and 5 µM (≈ 8.79 µg/mL), respectively.

Source of the values: DBAASP.
